We go through 9 molecules from PubChem BioAssay (NCI).

Some test systems named below: A549 NSCLC; DLD-1 colon; DMS 273 small cell lung; HCC-2998 colon; HCT-116 colon; HOP-18 NSCLC; HT29 colon; KM20L2 colon; NCI-H226 lung; NCI-H23 lung; SF-268 CNS; TK-10 renal.
Common to all, as to assay: DTP human tumour cell line panel, 48 h

The structures appear in SMILES notation.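 Where inhibition never reached the appropriate level, the endpoint shown equals the highest concentration tested. Otherwise, values were interpolated linearly from a five-concentration, 48-hour dose response in 96-well plates. At the TGI there is no net growth.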 Where only a bound is given, the exact number is not on record here.

Regarding `COC1OC(C)C2OC(C)(C)OC2C1OC(C)=O` (stereo not drawn), the TGI in the test on A549 NSCLC, with DLD-1 colon, in the test on DMS 273 small cell lung, in the test with HCC-2998 colon, in the test on HCT-116 colon and with HOP-18 NSCLC was above 100 µM throughout. Besides, the total growth inhibition concentration (TGI) in the test on HT29 colon, with KM20L2 colon, in the test with NCI-H226 lung, in the test with NCI-H23 lung, with SF-268 CNS and with TK-10 renal was above 100 µM in each case.
With `O=C1c2ccccc2C(=O)c2sc(Nc3ccccc3Cl)nc21`, the TGI is 46.2 µM in the test with A549 NSCLC; 25.1 µM with DLD-1 colon; 31.9 µM in the test on DMS 273 small cell lung; 34.9 µM with HCC-2998 colon; 22.9 µM in the test with HCT-116 colon; 27.2 µM with HOP-18 NSCLC. Also, the TGI with HT29 colon was 45.4 µM; in the test on KM20L2 colon, 39.5 µM; with NCI-H226 lung, 28.6 µM; in the test with NCI-H23 lung, 17.5 µM; in the test on SF-268 CNS it was 23.7 µM; with TK-10 renal, 34.2 µM.
Turning to `CN(C)CCNC(=O)c1cccc2ccc(-c3ccc(-c4ccccc4)cc3)nc12`, the TGI in the test on A549 NSCLC was 7.66 µM; with DLD-1 colon, 8.64 µM; in the test with DMS 273 small cell lung, 3.24 µM; with HCC-2998 colon, 3.3 µM; with HCT-116 colon it was 3.4 µM; in the test with HOP-18 NSCLC it was 26.4 µM. In addition, the TGI is 3.72 µM with HT29 colon; 4.67 µM with KM20L2 colon; 30.1 µM with NCI-H226 lung; 16.6 µM in the test with NCI-H23 lung; 10.4 µM in the test on SF-268 CNS; 9.43 µM in the test with TK-10 renal.
Regarding `CC(=O)OC1CC[C@@]2(C)C(CC[C@]3(C)C2CC=C2[C@@H]4C(C)[C@H](C)CCC4(C)CCC23C)[C@@]1(C)C(=O)O` (stereo partly drawn), the total growth inhibition concentration (TGI) with A549 NSCLC was 45.6 µM; with DLD-1 colon, 46.4 µM; with DMS 273 small cell lung, 46.8 µM; in the test on HCC-2998 colon it was 38.7 µM; in the test with HCT-116 colon, 30.8 µM; in the test on HOP-18 NSCLC it was 28.8 µM. Moreover, the TGI in the test on HT29 colon was 47.4 µM; in the test with KM20L2 colon, 29.4 µM; in the test with NCI-H226 lung, 53.4 µM; in the test with NCI-H23 lung, 51.6 µM; in the test with SF-268 CNS, 60.5 µM; in the test with TK-10 renal it was 30.7 µM.
As to `O=C(C/C(CCC(=O)N(Cc1ccccc1)Cc1ccccc1)=N/Nc1ccc([N+](=O)[O-])cc1[N+](=O)[O-])c1ccccc1`, the total growth inhibition concentration (TGI) in the test with A549 NSCLC, in the test with DLD-1 colon, in the test on DMS 273 small cell lung, in the test on HCC-2998 colon, in the test with HCT-116 colon and in the test on HOP-18 NSCLC was above 100 µM each time. For the same molecule, the total growth inhibition concentration (TGI) with HT29 colon, in the test on KM20L2 colon, in the test on NCI-H226 lung, with NCI-H23 lung, with SF-268 CNS and in the test on TK-10 renal was above 100 µM each time.
Turning to `COc1cccc2c1C(=O)OC2c1cccc2ccccc12` (stereo not drawn), the TGI with A549 NSCLC, in the test on DLD-1 colon, in the test on DMS 273 small cell lung, in the test on HCC-2998 colon, in the test with HCT-116 colon and in the test on HOP-18 NSCLC was above 100 µM each time. The TGI in the test on HT29 colon, in the test on KM20L2 colon, in the test on NCI-H226 lung, in the test with NCI-H23 lung, in the test on SF-268 CNS and with TK-10 renal was above 100 µM in each case.
For `COC(=O)/C=c1\s/c(=C\C(=O)OC)c2ccccc12`, the TGI with A549 NSCLC, with DLD-1 colon, in the test on DMS 273 small cell lung, in the test on HCC-2998 colon, in the test with HCT-116 colon and in the test on HOP-18 NSCLC was above 100 µM throughout. Further, the TGI in the test on HT29 colon, in the test on KM20L2 colon, with NCI-H226 lung, in the test with NCI-H23 lung, in the test on SF-268 CNS and with TK-10 renal was above 100 µM in each case.
Take `O=c1[nH]c(=O)n(C2OC(CO)C(O)C2O)cc1OCC(F)(F)F` (stereo not drawn): the total growth inhibition concentration (TGI) in the test on A549 NSCLC, in the test on DLD-1 colon, in the test with DMS 273 small cell lung, with HCC-2998 colon, in the test on HCT-116 colon and in the test on HOP-18 NSCLC was above 100 µM throughout. The concentration for total growth inhibition (TGI) in the test on HT29 colon, in the test on KM20L2 colon, in the test on NCI-H226 lung, in the test with NCI-H23 lung, with SF-268 CNS and in the test on TK-10 renal was above 100 µM throughout.
Take `C=CCOC(=O)C1CCC(=O)N1C(=O)C(Cl)Cl` (stereo not drawn): the concentration for total growth inhibition (TGI) with A549 NSCLC, in the test on DLD-1 colon, in the test with DMS 273 small cell lung, with HCC-2998 colon, in the test on HCT-116 colon and in the test with HOP-18 NSCLC was above 100 µM throughout. In addition, the TGI in the test on HT29 colon, in the test with KM20L2 colon, in the test with NCI-H226 lung, with NCI-H23 lung, in the test with SF-268 CNS and in the test with TK-10 renal was above 100 µM in each case.

For orientation: TGI means the concentration giving total growth inhibition. Lower therefore signals more potent growth arrest.
